Test results: PubChem BioAssay (NCI)
Several values for one entry are separate records, joined by “and”; a condition that tells them apart may be missing. Equal entries are not always repeated.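 These data come from cells grown in 96-well plates and exposed to compound for 48 hours at five concentrations. Abbreviation: GI50, concentration required for 50% inhibition of growth. Definition used: TGI = concentration required for complete inhibition of growth.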

What was measured:
Test in all cases: NCI-60 cell line screen, 48 h
OVCAR-8 ovarian = test system: OVCAR-8 ovarian
OVCAR-3 ovarian = test system: OVCAR-3 ovarian
M14 melanoma = test system: M14 melanoma
KM12 colon = test system: KM12 colon
SNB-78 CNS = test system: SNB-78 CNS
UACC-62 melanoma = test system: UACC-62 melanoma
786-0 renal = test system: 786-0 renal
DLD-1 colon = test system: DLD-1 colon
HCT-15 colon = test system: HCT-15 colon
HS 578T breast = test system: HS 578T breast

Row | Structure (SMILES) | TGI (OVCAR-8 ovarian) [µM] | TGI (OVCAR-3 ovarian) [µM] | TGI (M14 melanoma) [µM] | TGI (KM12 colon) [µM] | TGI (SNB-78 CNS) [µM] | TGI (UACC-62 melanoma) | TGI (786-0 renal) [µM] | TGI (DLD-1 colon) [µM] | TGI (HCT-15 colon) [µM] | GI50 (OVCAR-8 ovarian) [µM] | GI50 (OVCAR-3 ovarian) [µM] | GI50 (HCT-15 colon) [µM] | GI50 (M14 melanoma) [µM] | GI50 (KM12 colon) [µM] | GI50 (SNB-78 CNS) [µM] | GI50 (UACC-62 melanoma) [µM] | GI50 (786-0 renal) [µM] | GI50 (DLD-1 colon) [µM] | GI50 (HS 578T breast) [µM] | TGI (HS 578T breast) [µM]
1 | CCOC(=O)c1nc(-c2ccccc2)oc1OCC | > 100 | > 100 | > 100 | > 100 | > 100 | > 100 µM | > 100 | > 100 | – | – | – | – | – | – | – | – | – | – | – | –
2 | O=C1c2ccccc2CC1C1(O)C(=O)Nc2ccccc21 (stereo not drawn) | > 100 | > 100 | > 100 | – | > 100 | > 100 µM | > 100 | > 100 | > 100 | – | – | – | – | – | – | – | – | – | – | –
3 | N.N.NCCCCCCN.O=C([O-])CC(=O)[O-].O=C([O-])CC(=O)[O-].[Pt+4].[Pt+4] | > 100 | > 100 | > 100 | > 100 | > 100 | > 100 µM | > 100 | > 100 | > 100 | > 100 | > 89.7 | > 66.1 | > 86.7 | > 100 | > 100 | 10.5 | 65.7 | > 100 | – | –
4 | CCC1CCc2c(OC)ccc(OCC(=O)O)c2C1=O (stereo not drawn) | > 100 | > 100 | > 100 | > 100 | > 100 | > 100 µM | > 100 | > 100 | > 100 | – | – | – | – | – | – | – | – | – | – | –
5 | CC1CCC(C(C)C)C(O[C@@H]2OC(=O)C[C@@H]2Sc2ccccc2)C1 (stereo partly drawn) | 45.3 | 28.8 | 59.3 | 54.1 | 73.1 | > 100 µM | 45.9 | > 100 | 59.5 | – | – | – | – | – | – | – | – | – | – | –
6 | C=C1CCC2[C@@H](CCC3[C@]2(C)CCC[C@]3(C)C(=O)OC)C1CCO (stereo partly drawn) | 37.7 | 26 | 26.5 | 25.2 | 36.3 | 27.5 µM | 49.2 | 46.8 | 27.3 | – | – | – | – | – | – | – | – | – | – | –
7 | C=C1CCc2occ(C)c2C2C1C1=C(CC(C)C1=O)C1OC12C (stereo not drawn) | > 100 | > 100 | > 100 | > 100 | > 100 | > 100 µM | > 100 | > 100 | > 100 | – | – | – | – | – | – | – | – | – | – | –
8 | Cc1ccc(Sc2ccc(C)cc2[N+](=O)[O-])c([N+](=O)[O-])c1 | > 100 | > 100 | > 100 | > 100 | > 100 | > 100 µM | > 100 | – | > 100 | – | – | – | – | – | – | – | – | – | – | –
9 | OCC1OC(n2cnc3c(=S)nc[nH]c32)C(O)C1O (stereo not drawn) | > 2500 | > 2500 | > 2500 | > 2500 | > 2500 | 1910 µM and > 100 µM | > 2500 | – | > 2500 | 6.36 | – | 6.62 | 1.15 | 7.46 | – | 3.56 | 2.71 | – | 12.8 | > 2500
10 | COC(=O)C1=C(C(=O)OC)SC(=C(N=Nc2ccccc2)c2ccccc2)S1 | > 100 | > 100 | > 100 | > 100 | > 100 | > 100 µM | > 100 | > 100 | > 100 | – | – | – | – | – | – | – | – | – | – | –
11 | CCN(CC)CC(C(=O)Nc1c(C)cccc1C)/C(C)=N\NC(=O)c1ccncc1 (stereo not drawn) | > 100 | > 100 | > 100 | > 100 | > 100 | – | > 100 | > 100 | > 100 | – | – | – | – | – | – | – | – | – | – | –
12 | CC(=O)Nc1ccc(/C=C/C(=O)c2sc(-c3nc(C)c(C(=O)/C=C/c4ccc(NC(C)=O)cc4)s3)nc2C)cc1 | > 100 | > 100 | > 100 | > 100 | > 100 | > 100 µM | > 100 | > 100 | > 100 | – | – | – | – | – | – | – | – | – | – | –
13 | CC#CC1C(OC(=O)c2ccccc2)CCCC1(CI)N=[N+]=[N-] (stereo not drawn) | > 100 | > 100 | > 100 | > 100 | > 100 | > 100 µM | > 100 | > 100 | > 100 | – | – | – | – | – | – | – | – | – | – | –
14 | C=CCC(OCCOCC)c1cc(OCCOCC)ccc1OC (stereo not drawn) | > 100 | > 100 | > 100 | > 100 | > 100 | > 100 µM | > 100 | – | > 100 | – | – | – | – | – | – | – | – | – | – | –
15 | O=C1NC2C=CN(Cc3ccccc3)C=C2C(=O)N2CCCC12 (stereo not drawn) | > 100 | > 100 | > 100 | > 100 | > 100 | > 100 µM | > 100 | > 100 | > 100 | – | – | – | – | – | – | – | – | – | – | –
16 | COc1ccc(/C=C2\CCC(CN(C)C)C2=O)cc1OC (stereo not drawn) | 8.25 | 15.8 | 16.1 | 10.8 | 66.4 | 12.7 µM | 6.42 | 8.83 | 8.81 | – | – | – | – | – | – | – | – | – | – | > 100
17 | O=C(Nc1nc(=S)c2c(ncn2CCO)[nH]1)c1ccccc1 | > 100 | > 100 | > 100 | > 100 | > 100 | > 100 µM | > 100 | > 100 | > 100 | – | – | – | – | – | – | – | – | – | – | –
18 | N#Cc1cc([N+](=O)[O-])ccc1NC(=O)/C(=N/N)C(C(=O)c1ccc(Cl)c(Cl)c1)C1OC(=O)c2ccccc21 (stereo not drawn) | > 100 | > 100 | – | > 100 | > 100 | > 100 µM | > 100 | > 100 | > 100 | – | – | – | – | – | – | – | – | – | – | –
